Results reported in patent US20210380586A1, “2-INDOLYL IMIDAZO[4,5-D]PHENANTHROLINE POLYMORPHS AND COMPOSITIONS REGARDING THE SAME” (Aptose Biosciences Inc., priority 2020, published 2021).

Key:
[1] = Formulation development: solubility and clinical infusion simulation through 5 μm in-line filter; assay type: physicochemical
Description: Various pharmaceutical compositions were prepared in order to develop a formulation suitable for IV administration. […] A desirable IV pharmaceutical composition will be a solution. Further, a desirable IV pharmaceutical composition, when diluted with IV fluids will remain in solution. In addition, a desirable IV pharmaceutical composition, when diluted with IV fluids will remain in solution and pass an in-line filter of about 5 μm.
Clinical infusion simulation study: formulated Compound I (equivalent to 4 mg/mL Compound I free base tetrahydrate) was mixed in-line with Lactated Ringers IV Solution through a controlled delivery system employing infusion pumps. The blended liquid was passed through a 5 μm in-line filter and the eluate was then passed to the end of the infusion line. Sample analysis was performed by collecting materials at 0, 15, 30, 60, 75, 90, 105, 115 and 120 minutes and analyzing immediately be visual assessment under a microscope.

[2] = tested on: acute myeloid leukemia (AML) cell lines; experiment: In vitro antiproliferative assay; assay type: cell-based
Excerpt: (§1) Compound I free base and Compound I HCl salt were both tested for their in vitro antiproliferative potency against acute myeloid leukemia (AML) cell lines, for their concentration-dependent abilities to induce in vitro changes in gene expression (KLF4, c-Myc, CDX2, p21, and GAPDH genes) and to induce cell cycle arrest and apoptosis in AML cell lines.

[3] = tested on: KLF4, c-Myc, CDX2, p21, and GAPDH genes; experiment: In vitro changes in gene expression; assay type: cell-based; conditions: AML cell lines
Excerpt: as §1

AML cell lines = experiment: Induction of cell cycle arrest and apoptosis; assay type: cell-based
Excerpt: as §1

c-Myc oncogene = experiment: Inhibition of c-Myc expression in cancer cells; assay type: cell-based; conditions: human-derived solid tumor and hematologic cancer cells
Excerpt: (§2) Compound I is a small molecule that inhibits expression of the c-Myc oncogene, leading to cell cycle arrest and programmed cell death (apoptosis) in human-derived solid tumor and hematologic cancer cells.

[4] = tested on: xenograft models of solid tumors and hematologic cancers; experiment: Nonclinical pharmacology xenograft studies; assay type: in vivo
Excerpt: as §2

solubility compared with Compound I-HCl under the same conditions ([1]; Solutol HS 15, PG, PEG-400, water): more soluble | apparent solubility while adding water to the formulation ([1]; in the beginning, approximately 3-10 mL water added): more soluble | behaviour upon addition of IV fluid ([1]; pharmaceutical composition prepared with Fischer Scientific's PG): crashed out of solution | effect of PEG-400 on solubility ([1]; tested conditions (entries 2 and 3)): did not improve solubility | apparent solubility while adding water to the formulation ([1]; upon complete addition of water (up to 60 mL), cloudy formulation): insoluble
SMILES: Cc1[nH]c2ccc(F)cc2c1-c1nc2c3cccnc3c3ncccc3c2[nH]1 [Compound I, 2-(5-fluoro-2-methyl-1H-indol-3-yl)-1H-imidazo[4,5-f][1,10]phenanthroline]
in vitro antiproliferative potency, free base versus HCl salt [2]: behaved equivalently | concentration-dependent in vitro changes in gene expression, free base versus HCl salt [3]: behaved equivalently | induction of cell cycle arrest and apoptosis, free base versus HCl salt (AML cell lines): behaved equivalently | expression of the c-Myc oncogene (c-Myc oncogene): inhibits | in vivo anti-tumor activity [4]: demonstrated in vivo anti-tumor activity
